Data published in patent publication US10329304B2, “Compounds and methods for inhibition of hedgehog signaling and phosphodiesterase” (Vanderbilt University, priority 2014, dated 2019).
Entries after “also recorded” stand apart in the source; their conditions may differ. Read-outs that look alike come from different tables or passages of the source.

Key:
Hh signaling = Hh signaling inhibition (assay not named, data not shown); format: cell-based
[1] = tested on: Hedgehog signaling (TM3-Gli-Luc); assay: TM3-Gli-Luc luciferase reporter assay stimulated with 20 nM SAG; format: cell-based; settings: for EC50: read-out: TM3-Gli-Luc EC50
Summary of the method: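 TM3-Gli-Luc cells on 0.1% gelatin in DMEM/F12 with 2.5% FBS, treated 48 h with compound plus 20 nM SAG. Steady-Glo luminescence normalized to CellTiter-Glo viability, DMSO-only (no SAG) background subtracted, percent of SAG control. EC50 averaged from ≥2 independent days ±SEM.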

TM3-Gli-Luc cells = assay: TM3-Gli-Luc cell viability (Cell Titer Glo, LD50); format: cell-based
Procedure: On the day of cell plating, 96-well plates were coated with 50 μL/well of sterile 0.1% gelatin for 5 minutes then aspirated and replaced with 50 μL/well of TM3 Culture Medium. TM3-Gli-Luc cells were seeded at a density of 5,000 cells/well in TM3 Culture Medium and incubated for 24 hours. A master mix of 20 nM SAG in TM3Luc Medium was prepared, and small molecule solutions were prepared by adding the desired amount of compound from 10 mM DMSO stock to TM3Luc Medium containing 20 nM SAG. Negative control was prepared by adding an equi-volume amount of DMSO as compared to small molecule treated conditions to TM3Luc Medium not containing SAG. Cell plating medium was aspirated and replaced with 100 μL/well of prepared small molecule-containing media, and plates were incubated for 48 hours before proceeding to luciferase activity and cell viability reading.
TM3Luc Medium from compound treated plates was aspirated and replaced with 82 μL/well of Glo Lysis Buffer (Promega, Madison, Wis., USA), and plates were shaken at 300 rpm and room temperature for 12 minutes. Lysate was split between two white 96-well plates, 45 μL/well and 25 μL/well for luciferase reading and cell viability respectively. For luciferase activity monitoring, 45 μL/well of Steady Glo (Promega, Madison, Wis., USA) was added to 45 μL/well of cell lysate, incubated at room temperature for 5 minutes, then luminescence was measured on a Turner Biosystems Modulus Microplate Reader (Sunnyvale, Calif., USA) with an integration time of 0.5 seconds. For cell viability measurement, 25 μL/well of Cell Titer Glo (Promega, Madison, Wis., USA) (prepared by 1:10 dilution with Glo Lysis Buffer) was added to 25 μL/well of cell lysate, incubated at room temperature for 5 minutes, then luminescence was measured as above.
All raw data was divided by the average of positive control cell titer data to arrive at percent cells remaining compared to positive control. […] At least two independent assays tested on separate days were averaged to provide LD50±standard error of the mean.

Gli1 transcription = assay: Sufu−/− mouse embryonic fibroblasts qRT-PCR; format: cell-based
Text: (§1) In light of EGM1's ability to halt Hh transcriptional activity at a node downstream of the negative regulator Sufu, and thus also downstream of Smo, we sought to confirm mode of action retention with our most promising analogs. Therefore, we employed Sufu−/− mouse embryonic fibroblasts (MEF) that display constitutively active transcription of Hh target genes Gli1 and Ptch1 and monitored the ability of our optimized analogs to repress signaling via quantitative reverse transcription-PCR (qRT-PCR). […] We then evaluated improved analogs from multiple structural classes including those from Table 1 with cyclohexylthiophene cores as well as from Table 13 with structurally distinct core modifications.
(§2) Sufu^−/− cells were seeded into 12-well plates at a density of 100,000 cells/well in D10 FBS and incubated for 24 hours. Small molecule solutions were prepared by adding the desired amount of compound from 10 mM DMSO stock to D0.5 FBS. Negative control was prepared by adding an equi-volume amount of DMSO to D0.5 FBS as compared to small molecule treated conditions. Cell plating medium was aspirated and replaced with 1 mL of prepared small molecule-containing media, and plates were incubated for 24 hours before proceeding to RNA isolation.
(§3) Cells were washed 1× with 1× phosphate-buffered saline (PBS) then RNA was isolated using the Qiagen RNeasy Mini Kit (Qiagen, Germantown, Md., USA) according to the manufacturer's protocol, eluting RNA from the spin column with 30 μL of RNase-free water. RNA was placed on ice and immediately subjected to reverse transcription. Remaining RNA was stored at −80° C.
(§4) Reverse transcription polymerase chain reaction (RT-PCR) was performed with the Applied Biosystems High Capacity cDNA Reverse Transcription Kit (ThermoFisher Scientific, Waltham, Mass., USA) using an Eppendorf MasterCycler. Each 20 μL reaction contained 0.5 μg of total RNA, 2 μL of 10×RT Buffer, 0.8 μL of 25×dNTP Mix (100 mM), 2 μL of 10×RT Random Primers, 1 μL of MultiScribe® Reverse Transcriptase (50 U/μL), 1 μL of Recombinant RNasin® Ribonuclease Inhibitor (40 U/μL) (Promega, Madison, Wis., USA), and nuclease-free water. Reverse transcription was performed with the following program: 25° C. for 10 minutes, 37° C. for 120 minutes, and 85° C. for 5 minutes. The cDNA was subjected to quantitative real-time PCR (Q-PCR) or stored at −20° C.
(§5) Quantitative real-time PCR was performed on an Applied Biosystems 7900 HT Fast Real Time PCR System in 384-well format. Each cDNA sample was assayed in triplicate with both probe of interest and control probe. Master mixes for each probe were prepared corresponding to 10 μL of Applied Biosystems TaqMan Universal PCR Master Mix (ThermoFisher Scientific, Waltham, Mass., USA), 1 μL of primer, and nuclease-free water corresponding to a volume providing 20 μL reactions when loading an average of 50 ng of cDNA. Quantitative real-time PCR was run with the following thermal cycling protocol: 50° C. for 2 min., 95° C. for 10 min., and 40 cycles of 95° C. for 15 seconds, 60° C. for 1 min., then fluorescence reading. The following FAM probes were purchased from Life Technologies (Carlsbad, Calif., USA): mouse GAPDH, Mm99999915_g1; mouse Gli1, Mm00494646_g1; mouse Ptch1, Mm01306905_m1.
(§6) Quantitative real-time PCR data for Hh signaling inhibition was quantitated using the ΔΔCt method. Control probe values were subtracted from probe of interest values to arrive at the ΔCt value. The ΔCt value was transformed by 2-^ΔCt to arrive at the ΔΔCt value. All ΔΔCt values were divided by the average negative control ΔΔCt value to provide percent Hh signaling activity. Percent inhibition values were derived by calculating the inverse of percent activity. Data is reported as mean±standard error of the mean (SEM), representing at least two biological replicates, each quantitated in triplicate.

Ptch1 transcription = assay: Sufu−/− mouse embryonic fibroblasts qRT-PCR; format: cell-based
Text: as §1, §2, §3, §4, §5, §6

[2] = Lipophilic efficiency (LipE = pEC50 − cLogP) and cLogP
Summary of the method: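 pEC50 came from TM3-Gli-Luc Gli-responsive luciferase reporter cells stimulated with 20 nM SAG, with non-specific cytotoxicity monitored in parallel. LipE was calculated by subtracting cLogP from pEC50.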

[3] = tested on: Hedgehog signaling (Gli-Luc reporter); settings: read-out: reported EC50 in the Shh-LIGHT2 reporter line; cited from earlier work
[4] = tested on: Hedgehog signaling (Gli-Luc reporter); assay: Hh Gli-Luciferase reporter assay in Shh-Light2 cells; format: cell-based, mouse; settings: Shh-conditioned media
Summary of the method: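 Shh-Light2 cells with stable Gli-luciferase were stimulated by Shh-conditioned medium (or 3 μM purmorphamine or 20 nM SAG), or transfected with Gli-2, PDE4D3 or DN-PDE4D3. Overnight compound incubation preceded Steady-Glo read-out, normalized to CellTiter-Glo.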

[5] = tested on: total cellular cAMP levels; assay: cAMP assay (total cellular cAMP, EIA chemiluminescence); format: cell-based
Procedure: Shh-Light2 cells were seeded in a 96-well plate and incubated overnight. Varying concentrations of Rolipram or Eggmanone (0.013 uM-30 uM) or DMSO only were added to the cells in the absence of serum and incubated 30 minutes, at which time forskolin was added for a final concentration of 1 uM. After an additional 15 minutes, cells were washed with PBS and assayed for cAMP levels using EIA based chemiluminescence kit according to the manufacturer's protocol (Cell Signaling Technologies, Danvers, Mass.).

mouse aorta = assay: Myography of cannulated mouse aorta
Text: For myography, to test the vascular tone for presense of downstream or off target effects, mouse aorta was mounted and cannulated on a closed system. A physiological buffer (with respect to pH, CO2, and temperature) was circulated through the vessel.

PKA activation = assay: Immunostaining of autophosphorylated PKA catalytic subunit in NIH3T3 cells; format: cell-based; settings: SAG-stimulated NIH3T3 cells, Egm 5 μM, Rolipram 10 μM
Procedure: NIH3T3 cells were plated on Poly-D-Lysine-coated glass coverslips and were cultured at 37° C., 5% CO2 in DMEM medium containing 10% fetal bovine serum until reaching 75% confluency. For one set of experiments, cells were then transfected with VSV-tagged PDE4D3 plasmid (gift from Miles Houslay, University of Glasgow, Scotland, UK) using Fugene6 transfection reagent (Roche, Indianapolis, Ind.) per manufacturer's protocol. Afterward, cell medium was replaced with DMEM/0.5% FBS containing either 5 μM eggmanone or DMSO and incubated overnight at 37° C., 5% CO2. Cells were fixed in 4% PFA at room temperature for 10 minutes prior to permeabilization, blocking, and staining with primary antibodies against Arl13b (gift of Tamary Caspary, Emory University, Atlanta, Ga.) and VSV (AbCam, Cambridge, Mass.). Fluorescent immunocytochemistry was performed using species-specific, secondary antibodies (Jackson Immunoresearch, West Grove, Pa.). For additional immunocytochemistry experiment, cells were treated with 20 nM SAG in the presence or absence of 5 uM Eggmanone. After overnight incubation, cells were washed with PBS, fixed for 10 minutes in 4% PFA, permeabilized 20 minutes at −20C with cold methanol, blocked with PBS/1% BSA, and incubated with primary antibodies to phospho-PKA catalytic domain Thr197 (Cell Signaling, Danvers, Mass.) and then to Arl13b. An additional overnight blocking step using unconjugated rabbit IgG was required between primary antibody incubations since both antibodies were produced in rabbit. Fluorescent conjugated secondary antibodies were used for visualization. Data analysis was performed in part through the use of the VUMC Cell Imaging Shared Resource.
Using ImageJ software (National Institutes of Health, developed by W. Rasband), a region of interest was created using the magic wand tool on Arl13b channel and transposed to the Gli2 channel, and integrated density was measured and reported as arbitrary units (a.u.). For phospho-PKA, using ImageJ, a line selection tool was used to select a line projected through the length of the primary cilia and an equal length beyond. The intensity values were potted and the cumulative florescence (area under the curve) was calculated for three cilia, blindly, for each treatment. These values for cilia and pericilia domain were analyzed by a two tailed students t-test. For correlation analysis, correlation coefficient for intensity of gamma-tubulin and phosphor-PKA were calculated and compared among treatments with students t-test.

cAMP = assay: FRET-based cAMP sensors in NIH3T3 cells; format: cell-based; settings: 2 μM
Text: To visualize changes in cAMP concentrations in individual cells and cellular regions, we utilized two distinct FRET (fluorescence resonance energy transfer)-based cAMP sensors: the Epac-FRET sensor (mTurquoiseΔ-Epac(CD, ΔDEP)-cp173 Venus-Venus)^35, which detects cytosolic cAMP concentration and the PKA-based cAMP sensor (PKAC-YFP and PKARII-CFP combination), which has been used to document changes in local cAMP levels in the centrosome and basal body.

[6] = Sufu−/− MEF, qRT-PCR, compounds tested at 10 μM, normalized to DMSO, mean ± SEM

## O=C(Nc1c(Cl)cncc1Cl)c1ccc(OC(F)F)c(OCC2CC2)c1 [Roflumilast]
Hh signaling
  Potency for Hh signaling inhibition: micromolar potency

## CN(C)c1ccccc1CN1CCCN(Cc2ccccc2N(C)C)C1c1ccncc1 [GANT-61, reference compound]
[1]; 20 nM SAG
  Hh inhibitory activity / potency in words: slightly higher than the reported
[1]; 20 nM SAG, mean ± standard error of the mean
  EC50: 9.27 ± 1.8 µM
[1]; TM3-Gli-Luc reporter line stimulated with 20 nM SAG, mean ± SEM, Table 14
  EC50: 9.27 ± 1.8 µM
TM3-Gli-Luc cells
  TM3-Gli-Luc LD50: >50 µM
Gli1 transcription; 10 μM
  inhibition of Gli1 transcription: approximately 50%
Gli1 transcription; [6]
  Sufu−/− % Inh. Gil1 mRNA: 43.8 ± 5.2%
Ptch1 transcription; 10 μM
  inhibition of Ptch1 transcription: approximately 50%
Ptch1 transcription; [6]
  Sufu−/− % Inh. Ptch1 mRNA: 52.8 ± 2.7%
[2]; Calculated as pEC50 - cLogP, Molinspiration Cheminformatics
  LipE: 1.34
[2]; pEC50 - cLogP, Table 14
  LipE: 1.34
[3]
  EC50: ~5 µM

## COc1ccc(C2CNC(=O)C2)cc1OC1CCCC1 (centres unmarked) [rolipram, reference compound]
[4]
  Sonic hedgehog (SHH)-responsive Gli-luciferase reporter activity: did not bring the reporter activity down to the baseline even at very high concentrations
[4]; listed as Rolipram
  Sonic hedgehog (SHH)-responsive Gli-luciferase reporter activity: incomplete even at high concentrations
[5]
  Total cellular cAMP levels: substantially; also recorded: elicited robust cAMP accumulation
[5]; listed as Rolipram
  Total cellular cAMP levels: increased total cellular cAMP levels
Mouse aorta
  Vessel diameter after pre-constriction: caused the vessel to dilate
PKA activation
  PKA activation (phospho-PKA-C staining), spatial distribution: more diffuse increase in cytoplasmic phospho-PKA levels; also recorded: more diffuse increase in phospho-PKA staining
PKA activation; listed as Rolipram
  PKA activation (phospho-PKA-C staining), spatial distribution: increases PKA activation more diffusely
cAMP
  Cytosolic FRET signal (Epac-FRET sensor): significantly increased the FRET signal throughout the cell
